Results taken from article PMC4010398, “A Phase I Clinical Trial of Systemically Delivered NEMO Binding Domain Peptide in Dogs with Spontaneous Activated B-Cell like Diffuse Large B-Cell Lymphoma” (PLoS ONE, 2014).
Entries after “also recorded” stand apart in the source; their conditions may differ.

What was measured:
[1] = system: dogs with spontaneous ABC-like DLBCL; assay: Phase I 3+3 dose escalation: adverse events and toxicity (VCOG-CTCAE); format: in vivo, dog
From the text: The clinical trial protocol was fully approved by the University of Pennsylvania's Institutional Animal Care and Use Committee (Privately Owned Animal Protocol number: 803765). Only dogs with full written informed owner consent were eligible for enrollment. […] The histopathological diagnosis of DLBCL and cytological confirmation of large B cell lymphoma were made by board certified veterinary pathologists (M.G., and A.D., see acknowledgements) and by a board certified clinical pathologist (R.P.) respectively. Only dogs with DLBCL and constitutive NF-κB activity within their malignant lymph nodes as determined by the presence of phospho-IKK, phospho-IκBα and phospho-p65 were eligible to receive NBD peptide.
(§1) Tumor burden was calculated by measuring three dimensions (length, width and height) for each malignant lymph node. The mass of each node was calculated as previously described and the sum of measured lymph node mass was considered as total tumor mass. Response to NBD peptide was evaluated according to the Veterinary Cooperative Oncology Group criteria for assessment of response in peripheral nodal lymphoma, adapted for use in dogs from the published RECIST criteria. The Veterinary Cooperative Oncology Group Common Terminology for Adverse Events, version 1.0 was used to grade adverse events.

[2] = system: constitutive canonical NF-κB signaling (phospho-IKKα/β:IKKβ); assay: Immunoblot and densitometry of phospho-IKK in malignant lymph node biopsies, pre and 24 h post peptide; format: in vivo, dog; conditions: malignant lymph node biopsy 24 hours after single 1 h i.v. infusion, 0.5-2 mg/kg, vs pre-treatment; paired samples from ten of eleven dogs
Method: Lymph node biopsy samples were mechanically dissociated in RPMI and red blood cells were removed using ACK lysis buffer (Gibco) according to manufacturer's instructions. Cells were lysed in 50 mM Tris-HCL containing 1% NP-40, 150 mM NaCl, 2.5 mM EDTA, 5% glycerol, a 1∶50 dilution of Protease Inhibitor Cocktail and 1∶50 dilutions of Phosphatase Inhibitor Cocktails 2 and 3 (Sigma-Aldrich, Saint Louis, MO). Samples were centrifuged and protein concentrations were determined by micro BCA assay (Thermo Scientific, Rockford, IL). Proteins from whole cell extracts were separated by SDS-PAGE (10%) followed by transfer to PVDF membrane. Membranes were probed with polyclonal rabbit anti-human antibodies against phospho-IKKα/β (16A6), IKKβ (L570), phospho-IκBα (14D4), mouse anti-human IκBα (L35A5) and β-actin (4967) (Cell Signaling, Danvers, MA). An HRP-conjugated donkey anti-rabbit or anti-mouse IgG was used as the secondary detection antibody (Amersham, Piscataway, NJ). Blots were developed using ECL Plus (Amersham, Piscataway, NJ). Densitometry was performed using ImageJ software and integrated density values for each band were obtained using the Analyze Particles function.

[3] = Hematological and biochemical parameters before and one week after treatment; format: in vivo, dog
Method: In this phase I dose escalation clinical trial, both treatment-naïve and relapsed dogs were enrolled. NBD peptide was administered according to a standard 3+3 trial design. […] Peptide was reconstituted to 50 mM in sterile DMSO and diluted in 20 mls of lactated Ringers solution immediately prior to intravenous administration at a constant rate of 20 ml/hr. […] Following the post-treatment biopsy, dogs received induction or rescue chemotherapy as determined by their primary attending veterinary oncologist and a short course of prophylactic antibiotics (amoxicillin). All dogs received a follow-up full clinical examination, CBC, CS and urinalysis one week post NBD peptide.

[4] = system: Ki67; assay: Ki67 immunohistochemistry of malignant lymph node biopsies; format: in vivo, dog; conditions: 24 hours post peptide vs pre; 10 high power fields
Method: (§2) Immunohistochemical analysis was performed on 5 micron sections of formalin fixed paraffin embedded lymph node tissue from dogs with spontaneous DLBCL using a DAKO automatic universal staining system. Sections were heated in a 60°C oven for 1 hour, depararaffinized in PRO PAR clearant and rehydrated in progressively decreasing grades of ethanol. Antigen retrieval was performed by boiling sections in sodium citrate buffer, pH ∼9.0 for 15 minutes. Endogenous peroxidase was blocked with 3% hydrogen peroxide. For Ki67 staining, a 1∶50 dilution of a monoclonal mouse anti-human antibody (Clone MIB-1, DAKO) was used and immunodetection was performed using a biotinylated goat anti-rabbit/anti-mouse immunoglobulin and SA-HRP (LSAB2 kit, DAKO, Carpinteria, CA). For IRF-4 staining, a 1∶200 dilution of a polyclonal mouse anti human antibody (DAKO, M7259) was used and immunodetection was performed using a peroxidase polymer conjugated anti-mouse secondary antibody system (ImmPRESS Anti-mouse Ig peroxidase polymer detection kit). In all cases, antibody binding was detected using 3,3′-diaminobenzidine solution and tissues were counterstained with hematoxylin. Slides were viewed using a Nikon E600 infinity corrected upright microscope. […] Apoptotic cells were detected using the cell death detection kit (Roche, Indianapolis, IA) following the manufacturer's instructions. […]

[5] = system: Cyclin D1; assay: qRT-PCR of Cyclin D1 in malignant lymph node biopsies; format: in vivo, dog; conditions: 24 hour post-peptide biopsy normalized to pre-treatment; β-actin control, triplicate
Method: (§3) Lymph node biopsies were immediately placed in RNAlater (Ambion, Austin, TX) and stored at –80°C prior to RNA extraction. Total RNA extraction was performed using the RNeasy Mini Kit (Qiagen, Valencia, CA). Reverse transcription was performed using random hexamers and Superscript II reverse transcriptase (Invitrogen Corp., Carlsbad. CA, USA) according to the manufacturer's instructions. Primer sequences for canine A1, A20, Bcl-XL, c-FLIP, Cyclin D1, Bcl-2, XIAP and β-actin have been previously described, [35]. Primers were synthesized by Invitrogen Corp. Real-time PCR assays were performed using SYBR Green (Fermentas, Glen Burnie, Maryland). Samples were run in triplicate using standard conditions on an ABI 7500 sequence detector (Applied Biosystems, Carlsbad, CA) and data were analyzed using β-actin as an endogenous control. Dissociation curves were performed after each experiment to confirm the specificity of product amplification. Statistical analysis was performed using a two-tailed Student's ‘t’ test where statistical significance = p<0.05.

[6] = system: NF-κB target genes (A1, c-FLIP, XIAP, Bcl-XL, Bcl-2 and A20); assay: qRT-PCR of pro-survival NF-κB target genes in malignant lymph nodes; format: in vivo, dog
Method: as §3

[7] = system: malignant lymph nodes; assay: TUNEL staining of malignant lymph node biopsies; format: in vivo, dog; conditions: 24 hours post peptide vs pre; tissue available from 9 dogs
Method: as §2

[8] = system: malignant lymph nodes; assay: Measureable tumor mass before and 24 h after peptide; format: in vivo, dog; conditions: 24 hours after NBD peptide; measurements available for 10 treated dogs
Method: as §1

[9] = system: dogs with spontaneous ABC-like DLBCL; assay: Clinical response and survival after NBD peptide plus chemotherapy; format: in vivo, dog
Method: as §1

[10] = system: malignant node; conditions: local, intranodal administration; cited from earlier work
From the text: (§4) Pet dogs that develop Non-Hodgkins Lymphoma (NHL) are recognized as a clinically relevant, spontaneous large animal model of the human disease, [27]–[31]. […] Furthermore, tissue microarrays from lymphomatous canine tissue confirmed the presence of constitutive NF-κB activity and pharmacological inhibition of IKK leads to in ...

[11] = system: primary malignant canine B cells; conditions: in vitro, cited from earlier work
From the text: as §4

[12] = system: rats, mice and piglets; conditions: doses ranging from 0.75 mg/kg to 20 mg/kg; cited from earlier work
From the text: In this study, as a consequence of dru ...

[13] = Plasma pharmacokinetics after intravenous infusion (mass spectrometry)
Method: In this phase I dose escalation clinical trial, both treatment-naïve and relapsed dogs were enrolled. NBD peptide was administered according to a standard 3+3 trial design. The dose endpoint was the dose at which canonical NF-κB signaling was inhibited within malignant lymph nodes. Peptide was reconstituted to 50 mM in sterile DMSO and diluted in 20 mls of lactated Ringers solution immediately prior to intravenous administration at a constant rate of 20 ml/hr. Twenty-four hours post NBD peptide administration, excisional or Tru-cut biopsies of a peripheral malignant lymph node were taken for Western blot, qRT-PCR and histopathological analysis.
EDTA anti-coagulated blood samples were taken at 0, 30, 60, 90, 120, 240, 360 mins and 24 hours post infusion. Plasma was separated by centrifugation and stored at −80°C prior to pharmacokinetic analysis. Mass spectrometer analysis of NBD peptide in plasma samples was performed by Frontage Laboratories, Exton, PA and pharmacokinetic (PK) parameters were determined using WinNonlin v5.2 software. The lower limit of quantification (LLOQ) was set to 10 ng/ml however, in some instances the LLOQ was changed to 20 ng/ml because of potential interference in the samples.

[14] = one week after NBD peptide plus induction or rescue chemotherapy

## NEMO Binding Domain (NBD) peptide [NBD peptide]
[1]; 0.5-2.0 mg/kg single i.v. dose, clinical, hematological and biochemical parameters
  acute or chronic toxicities at any dose evaluated: no significant acute or chronic toxicities
[1]; <2 mg/kg i.v.
  safety of intravenous administration: safe
[1]; Group 1, 0.5 mg/kg i.v., three dogs, no premedication, mild, transient, resolved when infusion was discontinued
  dogs that became drowsy and developed moderate tachycardia and hypertension during infusion: two
[1]; Group 2, 1 mg/kg i.v., premedicated with ondansetron and diphenhydramine
  additional dogs with transient hypertension: one
[1]; doses 0.5-2.0 mg/kg i.v.
  maximum tolerated dose of NBD peptide in dogs: not reached
[2]
  dogs showing reductions in the phosphorylation status of IKK (pIKK:IKK): 6/10 and Six out of ten
[3]; Group 2, 1 mg/kg, dog also received L'asparaginase 24 hrs after peptide, values returned to baseline two weeks later
  dogs with significant but asymptomatic increases in liver values (ALT, ALKP, AST and GGT) one week later: One
[3]; all previously treated for relapsed lymphoma, one week after NBD peptide plus chemotherapy
  dogs with elevated ALKP prior to peptide that showed further increases in ALKP post treatment: 4/11
[3]; [14]
  dogs with an increase in platelet count: 8/11
  dogs with mild decreases in lymphocyte counts: 9/11
[3]; one week after NBD peptide plus induction or rescue chemotherapy, most values within the normal range
  dogs with mild decreases in hematocrit: 9/11
[4]
  dogs with a statistically significant reduction in the number of Ki67+ cells: Four
[5]
  dogs with a decrease in the expression of Cyclin D1: Eight out of eleven
[6]; 2 mg/kg i.v., 24 hours after peptide, compared with the other dogs
  inhibition of NF-κB target genes in the one dog that received 2 mg/kg (dog 11): most significant inhibition
[6]; 24 hours after NBD peptide, six genes evaluated
  dogs in which the expression of 3 or more target genes was reduced: 6 out of 11
[7]
  dogs with a trend towards an increase in apoptosis (TUNEL): Five
[8]
  dogs with greater than 20% reduction in measureable tumor mass: Five out of 10
[9]; NBD peptide plus chemotherapy, eleven dogs, including 5 dogs treated at first relapse
  dogs that achieved clinical remission (CR): Seven
[9]; after peptide administration and chemotherapy
  dogs that survived greater than 16 months: three
[10]
  effect on tumor burden: decreases tumor burden
[11]; NBD peptide fused to AntP
  effect on cell survival: rapid apoptosis
[11]; NBD peptide fused to the cell penetrating Antennapedia peptide (AntP)
  effect on phosphorylation of IKK and IκBα: inhibits phosphorylation
[12]
  tolerability of systemic administration: well tolerated
[13]; 0.5-2.0 mg/kg i.v.
  plasma concentrations of NBD peptide at the doses studied: very low
[13]; any dog, sampling up to 24 hours post infusion, LLOQ 10 or 20 ng/ml
  NBD peptide in plasma after 60 mins: not detected; also recorded: undetectable
